Results on 2 molecules are retold here after BindingDB's records for doi:10.1021/jm100571n (Novartis Institutes For Biomedical Research, 2010).

Test [1] deals with 3-phosphoinositide-dependent protein kinase 1 (Homo sapiens) (UniProt O15530). The test can be described thus: Inhibition of PDK1.
The target in test [2] is Tyrosine-protein kinase SYK (Homo sapiens) (UniProt P43405). The experiment in a line: Inhibition of SYK.

With `CC(C)c1n[nH]c(Cl)c1-c1ccnc(Nc2ccc(N3CCC(N(C)C)CC3)cn2)n1` [4-(5-Chloro-3-isopropyl-1H-pyrazol-4-yl)-N-(5-(4-(dimethylamino)piperidin-1-yl)pyridin-2-yl)pyrimidin-2-amine], the IC50 in test [1] and in test [2] was > 10 µM throughout.
On to `CC(C)c1[nH]nc(C(F)(F)F)c1-c1ccnc(Nc2ccc(N3CCC(N(C)C)CC3)cn2)n1` [N*6'*-[4-(5-Isopropyl-3-trifluoromethyl-1H-pyrazol-4-yl)-pyrimidin-2-yl]-N*4*,N*4*-dimethyl-3,4,5,6-tetrahydro-2H-[1,3']-bipyridinyl-4,6'-diamine], for which the IC50 in test [1] and in test [2] was > 10 µM in each case.

By IC50 is commonly meant the midpoint of a concentration-inhibition curve. Read a high IC50 as weaker potency.
